In US11420958B2, “Aryl and heteroaryl substituted indole compounds” (BRISTOL-MYERS SQUIBB COMPANY, priority 2017, dated 2022) one finds IC50 data, which are given here for 13 molecules.

What all share (assay type): cell-based
One test addresses human TLR9 (Homo sapiens (Human), UniProt Q9NR96). Nature of the test: TLR9 inhibition reporter assay (HEK-Blue, SEAP). Particulars: HEK-Blue cells overexpressing human TLR9, ODN2006 5 nM stimulation. In outline: (§1)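 Reporter cells, NF-κB/AP-1-driven SEAP; cmpd 0.05 nM–50 μM final, 30 min RT pre-treat; stim gardiquimod 7.5 μM (TLR7), R848 15.9 μM (TLR8), ODN2006 5 nM (TLR9); 22 h 37 °C; % inhibition of SEAP signal.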
On the technique in general: Reporter assays use an easily measured gene product as a stand-in for the process of interest.

In a further test the target is human TLR8 (Homo sapiens (Human), UniProt Q9NR97). Briefly: TLR8 inhibition reporter assay (HEK-Blue, SEAP). Particulars: HEK-Blue cells overexpressing human TLR8, R848 15.9 μM stimulation. In outline: as §1
human TLR8, sequence (Q9NR97 27-1041): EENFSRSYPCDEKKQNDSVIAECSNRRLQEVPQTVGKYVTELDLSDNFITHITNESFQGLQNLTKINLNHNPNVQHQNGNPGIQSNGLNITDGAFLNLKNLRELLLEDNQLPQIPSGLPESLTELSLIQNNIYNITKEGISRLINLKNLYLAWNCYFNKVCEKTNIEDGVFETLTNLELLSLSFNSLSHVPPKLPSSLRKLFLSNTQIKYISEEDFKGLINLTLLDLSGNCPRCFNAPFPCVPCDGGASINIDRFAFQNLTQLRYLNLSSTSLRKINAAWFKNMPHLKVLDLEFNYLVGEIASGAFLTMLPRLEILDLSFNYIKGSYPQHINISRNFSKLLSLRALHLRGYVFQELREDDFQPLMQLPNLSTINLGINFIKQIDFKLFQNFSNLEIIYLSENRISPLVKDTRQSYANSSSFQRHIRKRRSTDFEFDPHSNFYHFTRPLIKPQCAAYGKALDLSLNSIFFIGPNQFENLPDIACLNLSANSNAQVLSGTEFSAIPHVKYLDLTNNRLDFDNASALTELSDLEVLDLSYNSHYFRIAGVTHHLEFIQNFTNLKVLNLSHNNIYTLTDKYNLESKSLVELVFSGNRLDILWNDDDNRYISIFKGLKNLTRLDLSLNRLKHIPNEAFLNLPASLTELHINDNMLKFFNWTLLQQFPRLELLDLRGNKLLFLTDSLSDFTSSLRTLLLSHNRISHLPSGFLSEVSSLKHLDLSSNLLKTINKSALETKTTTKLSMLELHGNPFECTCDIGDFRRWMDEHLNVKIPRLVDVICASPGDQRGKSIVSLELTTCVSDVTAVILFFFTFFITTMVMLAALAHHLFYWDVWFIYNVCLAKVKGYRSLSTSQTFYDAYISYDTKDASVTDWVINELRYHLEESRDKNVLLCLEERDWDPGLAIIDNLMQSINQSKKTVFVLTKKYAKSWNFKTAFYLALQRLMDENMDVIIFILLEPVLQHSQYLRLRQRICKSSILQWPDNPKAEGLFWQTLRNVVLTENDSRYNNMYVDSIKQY
Another test deals with human TLR7 (Homo sapiens (Human), UniProt Q9NYK1). Briefly: TLR7 inhibition reporter assay (HEK-Blue, SEAP). The conditions noted are these: HEK-Blue cells overexpressing human TLR7, gardiquimod 7.5 μM stimulation. The procedure, abridged: as §1
human TLR7, sequence (Q9NYK1 27-1049): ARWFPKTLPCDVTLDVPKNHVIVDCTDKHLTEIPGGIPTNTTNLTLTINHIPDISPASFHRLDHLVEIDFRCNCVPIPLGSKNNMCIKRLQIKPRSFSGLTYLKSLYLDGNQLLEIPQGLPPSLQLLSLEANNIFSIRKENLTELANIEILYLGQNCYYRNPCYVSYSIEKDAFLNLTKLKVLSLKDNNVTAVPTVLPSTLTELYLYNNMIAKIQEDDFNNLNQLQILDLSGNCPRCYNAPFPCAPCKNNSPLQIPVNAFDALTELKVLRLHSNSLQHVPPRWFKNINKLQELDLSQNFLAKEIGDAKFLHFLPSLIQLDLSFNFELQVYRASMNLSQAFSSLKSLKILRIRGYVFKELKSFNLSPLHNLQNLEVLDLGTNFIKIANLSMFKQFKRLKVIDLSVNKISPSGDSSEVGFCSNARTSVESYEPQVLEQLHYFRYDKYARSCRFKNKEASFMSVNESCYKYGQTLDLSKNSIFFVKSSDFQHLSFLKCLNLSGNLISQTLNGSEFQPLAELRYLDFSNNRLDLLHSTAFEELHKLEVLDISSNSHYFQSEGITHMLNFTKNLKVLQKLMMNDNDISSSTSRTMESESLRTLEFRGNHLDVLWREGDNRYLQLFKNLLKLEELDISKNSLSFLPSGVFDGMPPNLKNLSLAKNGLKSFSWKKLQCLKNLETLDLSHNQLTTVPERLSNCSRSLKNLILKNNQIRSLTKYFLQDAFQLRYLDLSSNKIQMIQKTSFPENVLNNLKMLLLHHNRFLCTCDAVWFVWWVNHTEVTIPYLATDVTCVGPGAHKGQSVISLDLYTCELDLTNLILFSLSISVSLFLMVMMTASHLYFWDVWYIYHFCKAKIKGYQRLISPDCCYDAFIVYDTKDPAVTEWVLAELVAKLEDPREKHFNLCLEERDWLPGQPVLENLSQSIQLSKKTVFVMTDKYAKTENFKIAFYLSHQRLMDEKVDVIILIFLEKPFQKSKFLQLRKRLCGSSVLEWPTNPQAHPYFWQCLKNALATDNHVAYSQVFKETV

By IC50 is commonly meant the concentration at which inhibition is half-maximal. A higher IC50 goes with a need for much substance.

The structures appear in SMILES notation. Where only a bound is given, the exact number is not on record here.

human TLR9, sequence (Q9NR96 26-1032): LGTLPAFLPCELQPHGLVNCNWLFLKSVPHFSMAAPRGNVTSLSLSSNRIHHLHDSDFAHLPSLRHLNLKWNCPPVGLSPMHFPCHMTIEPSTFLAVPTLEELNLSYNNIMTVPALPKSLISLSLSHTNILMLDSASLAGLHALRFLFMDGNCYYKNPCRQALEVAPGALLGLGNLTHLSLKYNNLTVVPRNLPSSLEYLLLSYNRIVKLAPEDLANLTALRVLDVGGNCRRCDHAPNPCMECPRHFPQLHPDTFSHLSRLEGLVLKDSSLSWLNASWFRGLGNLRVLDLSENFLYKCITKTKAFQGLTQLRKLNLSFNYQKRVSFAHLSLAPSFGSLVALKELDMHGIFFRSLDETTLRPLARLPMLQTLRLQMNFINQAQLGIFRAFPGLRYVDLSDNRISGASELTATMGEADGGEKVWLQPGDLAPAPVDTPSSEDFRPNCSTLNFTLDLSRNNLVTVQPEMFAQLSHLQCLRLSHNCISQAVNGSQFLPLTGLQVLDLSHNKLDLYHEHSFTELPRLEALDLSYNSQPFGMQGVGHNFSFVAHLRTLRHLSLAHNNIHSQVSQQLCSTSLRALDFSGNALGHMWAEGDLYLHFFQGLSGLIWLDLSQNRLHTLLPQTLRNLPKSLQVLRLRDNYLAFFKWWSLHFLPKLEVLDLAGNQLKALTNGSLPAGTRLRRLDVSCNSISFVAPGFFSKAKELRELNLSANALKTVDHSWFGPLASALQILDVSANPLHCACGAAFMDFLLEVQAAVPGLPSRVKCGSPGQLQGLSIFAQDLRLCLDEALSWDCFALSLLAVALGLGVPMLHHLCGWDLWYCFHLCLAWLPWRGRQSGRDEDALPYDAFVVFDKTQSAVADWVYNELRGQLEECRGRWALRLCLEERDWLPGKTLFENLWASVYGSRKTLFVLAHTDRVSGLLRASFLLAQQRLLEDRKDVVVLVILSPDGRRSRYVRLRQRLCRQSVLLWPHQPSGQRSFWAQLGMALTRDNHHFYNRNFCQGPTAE

For `CCc1c(-c2ccc(OC)c(OC)c2)[nH]c2ccc(-c3noc(CCNC)n3)cc12` [Example 460, 2-(3-(2-(3,4-dimethoxyphenyl)-3-ethyl-1H-indol-5-yl)-1,2,4-oxadiazol-5-yl)-N-methylethan-1-amine], the IC50 stood at 2680 nM on human TLR9, 7.3 nM at human TLR8 and 539 nM at human TLR7.
As to `CCc1c(-c2ccnc(C)c2)[nH]c2ccc(-c3noc(C4CC5(CCNCC5)C4)n3)cc12` [Example 461, 3-(3-ethyl-2-(2-methylpyridin-4-yl)-1H-indol-5-yl)-5-(7-azaspiro[3.5]nonan-2-yl)-1,2,4-oxadiazole], the IC50 at human TLR9 turned out to be 1540 nM; on human TLR8 it was 72 nM; against human TLR7 it was 321 nM.
`CC(C)c1c(-c2ccnc3[nH]ncc23)[nH]c2ccc(-c3noc([C@@H]4CCCNC4)n3)cc12` [Example 462, (R)-3-(3-isopropyl-2-(1H-pyrazolo[3,4-b]pyridin-4-yl)-1H-indol-5-yl)-5-(piperidin-3-yl)-1,2,4-oxadiazole]: the half-inhibitory concentration (IC50) came to 1900 nM on human TLR9, 4.1 nM against human TLR8 and 156 nM on human TLR7.
`CCc1c(-c2ccc(OC)c(OC)c2)[nH]c2ccc(-c3noc([C@@H](N)CCCN)n3)cc12` [Example 463, (S)-1-(3-(2-(3,4-dimethoxyphenyl)-3-ethyl-1H-indol-5-yl)-1,2,4-oxadiazol-5-yl)butane-1,4-diamine]: the half-inhibitory concentration (IC50) amounted to 7150 nM on human TLR9, 126 nM against human TLR8 and 772 nM against human TLR7.
Take `CCc1c(-c2ccc(OC)c(OC)c2)[nH]c2ccc(-c3noc([C@@H](N)CCCCN)n3)cc12` [Example 464, (S)-1-(3-(2-(3,4-dimethoxyphenyl)-3-ethyl-1H-indol-5-yl)-1,2,4-oxadiazol-5-yl)pentane-1,5-diamine]: the figures for the concentration for half-maximal inhibition (IC50) on human TLR9, against human TLR8 and against human TLR7 were 2730 nM, 183 nM and 1650 nM, respectively.
The matching figures for `COc1ccc(-c2[nH]c3ccc(-c4cc[nH]c4)cc3c2C(C)C)cc1OC` [Example 465, 2-(3,4-dimethoxyphenyl)-3-isopropyl-5-(1H-pyrrol-3-yl)-1H-indole]: 33000 nM, 81 nM and 305 nM.
Regarding `CCc1c(-c2ccc(OC)c(OC)c2)[nH]c2ccc(-c3cccnc3)cc12` [Example 466, 2-(3,4-dimethoxyphenyl)-3-ethyl-5-(pyridin-3-yl)-1H-indole], the IC50 against human TLR9 was > 50000 nM; against human TLR8, 368 nM; against human TLR7, 3880 nM.
For `CC(C)c1c(-c2ccnc3[nH]ncc23)[nH]c2ccc(-c3cccnc3)cc12` [Example 467, 4-(3-isopropyl-5-(pyridin-3-yl)-1H-indol-2-yl)-1H-pyrazolo[3,4-b]pyridine], the IC50 at human TLR9 turned out to be 24200 nM; on human TLR8, 18 nM; against human TLR7, 208 nM.
As for `CC(C)c1c(-c2ccnc3[nH]ncc23)[nH]c2ccc(-c3ccc4nccnc4c3)cc12` [Example 468, 6-(3-isopropyl-2-(1H-pyrazolo[3,4-b]pyridin-4-yl)-1H-indol-5-yl)quinoxaline], the IC50 against human TLR9 was determined as 47300 nM; at human TLR8, 35 nM; against human TLR7 it was 450 nM.
On the same counts, the results for `CC(C)c1c(-c2ccnc3[nH]ncc23)[nH]c2ccc(-c3ccc4ncccc4c3)cc12` [Example 469, 6-(3-isopropyl-2-(1H-pyrazolo[3,4-b]pyridin-4-yl)-1H-indol-5-yl)quinoline] are > 50000 nM, 129 nM and 606 nM.
On the same counts, the results for `CC(C)c1c(-c2ccnc3[nH]ncc23)[nH]c2ccc(-c3cccc4cnccc34)cc12` [Example 470, 5-(3-isopropyl-2-(1H-pyrazolo[3,4-b]pyridin-4-yl)-1H-indol-5-yl)isoquinoline] are > 50000 nM, 56 nM and 2590 nM.
Turning to `CCc1c(-c2ccc(OC)c(OC)c2)[nH]c2ccc(-c3ccncc3)cc12` [Example 471, 2-(3,4-dimethoxyphenyl)-3-ethyl-5-(pyridin-4-yl)-1H-indole], the IC50 was 42300 nM on human TLR9, 238 nM against human TLR8 and 2180 nM on human TLR7.
On the same counts, the results for `COc1ccc(-c2[nH]c3ccc(-c4nnc([C@H]5CCCNC5)o4)cc3c2CC(F)(F)F)cc1OC` [compound 57] are 1470 nM, 10 nM and 31 nM.
